Results as given in US20240158446A1, “CYCLIC COMPOUND HAVING SELECTIVE INHIBITORY ACTION ON KRAS OVER HRAS AND NRAS” (CHUGAI SEIYAKU KABUSHIKI KAISHA, priority 2021, published 2024).

How the values were obtained:
[1] = target: GDP-bound NRAS wild-type protein (Homo sapiens, UniProt P01111); assay: Binding to NRAS by surface plasmon resonance (SPR), Single Cycle Kinetics; details: SPR KD ratio NRAS/KRAS, class symbols
[2] = target: GDP-bound HRAS wild-type protein (Homo sapiens, UniProt P01112); assay: Binding to HRAS by surface plasmon resonance (SPR), Single Cycle Kinetics; details: SPR KD ratio HRAS/KRAS, class symbols
GDP-bound HRAS wild-type protein, sequence (P01112 whole entry): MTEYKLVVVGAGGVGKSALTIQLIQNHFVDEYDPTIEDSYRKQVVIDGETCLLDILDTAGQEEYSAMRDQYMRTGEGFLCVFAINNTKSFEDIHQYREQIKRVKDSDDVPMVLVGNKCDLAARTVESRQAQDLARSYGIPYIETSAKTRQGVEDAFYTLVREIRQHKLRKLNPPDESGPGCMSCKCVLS

[3] = tested on: human lung cancer strain NCI-H441;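 also: cell proliferation inhibition after four days measured by CellTiter-Glo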
[4] = target: GDP-bound KRAS wild-type protein (Homo sapiens, UniProt P01116); assay: Binding to KRAS by surface plasmon resonance (SPR), Single Cycle Kinetics; details: SPR Single Cycle Kinetics, GDP-bound KRAS wild-type protein, 1:1 binding model; read-out: KRAS KD
GDP-bound KRAS wild-type protein, sequence (P01116 whole entry): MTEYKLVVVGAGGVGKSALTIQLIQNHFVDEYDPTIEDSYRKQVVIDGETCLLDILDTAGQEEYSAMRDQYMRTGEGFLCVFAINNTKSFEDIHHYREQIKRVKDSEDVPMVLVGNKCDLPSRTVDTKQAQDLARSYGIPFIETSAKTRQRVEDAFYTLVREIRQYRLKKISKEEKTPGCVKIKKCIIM

GDP-bound NRAS wild-type protein, sequence (P01111 whole entry): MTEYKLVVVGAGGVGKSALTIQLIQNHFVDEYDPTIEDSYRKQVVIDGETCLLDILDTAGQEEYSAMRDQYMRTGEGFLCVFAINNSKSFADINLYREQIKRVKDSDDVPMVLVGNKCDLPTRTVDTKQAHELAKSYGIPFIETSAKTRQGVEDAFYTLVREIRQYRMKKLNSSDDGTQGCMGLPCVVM

Row | Structure (SMILES) | NRAS/KRAS (ratio of KD value with respect to GDP-bound NRAS wild-type protein to KD value with respect to KRAS) [1] | HRAS/KRAS (ratio of KD value with respect to GDP-bound HRAS wild-type protein to KD value with respect to KRAS) [2] | IC50 [3] [nM] | Kd [4] [nM]
1 | CCC(CC)[C@H]1C(=O)N(C)[C@H](C(=O)N(C)C)CC(=O)N(C)[C@@H](COC)C(=O)N[C@@H]([C@@H](C)CC)C(=O)N(C2CC2)CC(=O)N(C)[C@H]2C/C=C\CCN(C2=O)[C@@H](CC2CCC(F)(F)CC2)C(=O)N(C)CC(=O)N[C@@H](CCc2cc(F)c(C(F)(F)F)c(F)c2)C(=O)N2C[C@H](OC3CCCC3)C[C@H]2C(=O)NC2(CC(C)(C)C2)C(=O)N1C [PP2627] | A (a compound having 10 or more and less than 20 is denoted as A) | A (a compound having 10 or more and less than 20 is denoted as A) | 95.2 | 2.6
2 | CC[C@H](C)[C@@H]1NC(=O)[C@H](COC)N(C)C(=O)C[C@@H](C(=O)N(C)C)N(C)C(=O)[C@H](C2CCCC2)N(C)C(=O)C2(CC(C)(C)C2)NC(=O)[C@@H]2C[C@@H](OC3CCCC3)CN2C(=O)[C@H](CCc2ccc(Cl)c(Cl)c2)NC(=O)CN(C)C(=O)[C@H](Cc2ccc(C)cc2)N2CC/C=C\C[C@@H](C2=O)N(C)C(=O)CN(C2CC2)C1=O [PP2628] | A (a compound having 10 or more and less than 20 is denoted as A) | A (a compound having 10 or more and less than 20 is denoted as A) | 67.9 | 0.9
3 | CC[C@H](C)[C@@H]1NC(=O)[C@H](COC)N(C)C(=O)C[C@@H](C(=O)N(C)C)N(C)C(=O)[C@H](C2CCCC2)N(C)C(=O)C2(CC(C)(C)C2)NC(=O)[C@@H]2C[C@@H](OC3CCCC3)CN2C(=O)[C@H](CCc2cc(F)c(C(F)(F)F)c(F)c2)NC(=O)CN(C)C(=O)[C@H](CC2CCCCC2)N2CC/C=C\C[C@@H](C2=O)N(C)C(=O)CN(C2CC2)C1=O [PP2630] | A (a compound having 10 or more and less than 20 is denoted as A) | B (a compound having 3 or more and less than 10 is denoted as B) | 190 | 3
4 | CCC(CC)[C@H]1C(=O)N(C)[C@H](C(=O)N(C)C)CC(=O)N(C)[C@@H](COC)C(=O)N[C@@H]([C@@H](C)CC)C(=O)N(C2CC2)CC(=O)N(C)[C@H]2C/C=C\CCN(C2=O)[C@@H](Cc2ccc(C(F)F)cc2)C(=O)N(C)CC(=O)N[C@@H](CCc2cc(F)c(C(F)(F)F)c(F)c2)C(=O)N2C[C@H](OC3CCC3)C[C@H]2C(=O)NC2(CC(C)(C)C2)C(=O)N1C [PP2631] | AA (a compound having 20 or more is denoted as AA) | A (a compound having 10 or more and less than 20 is denoted as A) | 56.9 | 0.5
5 | CCC(CC)[C@H]1C(=O)N(C)[C@H](C(=O)N(C)C)CC(=O)N(C)[C@@H](COC)C(=O)N[C@@H]([C@@H](C)CC)C(=O)N(C2CC2)CC(=O)N(C)[C@H]2C/C=C\CCN(C2=O)[C@@H](Cc2ccc(C(F)F)cc2)C(=O)N(C)CC(=O)N[C@@H](CCc2cc(F)c(C(F)(F)F)c(F)c2)C(=O)N2C[C@H](OC3CCCC3)C[C@H]2C(=O)NC2(CC(C)(C)C2)C(=O)N1C [PP2633] | AA (a compound having 20 or more is denoted as AA) | A (a compound having 10 or more and less than 20 is denoted as A) | 29 | 0.64
6 | CC[C@H](C)[C@@H]1NC(=O)[C@H](COC)N(C)C(=O)C[C@@H](C(=O)N(C)C)N(C)C(=O)[C@H](C2CCCC2)N(C)C(=O)C2(CC(C)(C)C2)NC(=O)[C@@H]2C[C@@H](OC3CCCC3)CN2C(=O)[C@H](CCc2cc(F)c(C(F)(F)F)c(F)c2)NC(=O)CN(C)C(=O)[C@H](CC2CCC(F)(F)CC2)N2CC/C=C\C[C@@H](C2=O)N(C)C(=O)CN(C2CC2)C1=O [PP2634] | A (a compound having 10 or more and less than 20 is denoted as A) | A (a compound having 10 or more and less than 20 is denoted as A) | 45.4 | 0.68
7 | CCO[C@@H]1C[C@H]2C(=O)NC3(CC(C)(C)C3)C(=O)N(C)[C@@H](C(CC)CC)C(=O)N(C)[C@H](C(=O)N(C)C)CC(=O)N(C)[C@@H](COC)C(=O)N[C@@H]([C@@H](C)CC)C(=O)N3CCC[C@H]3C(=O)N(C)[C@H]3C/C=C\CCN(C3=O)[C@@H](Cc3ccc(C(F)(F)F)cc3)C(=O)N(C)CC(=O)N[C@@H](CCc3ccc(Cl)c(Cl)c3)C(=O)N2C1 [PP2635] | AA (a compound having 20 or more is denoted as AA) | A (a compound having 10 or more and less than 20 is denoted as A) | 50.2 | 0.97
8 | CCC[C@H]1C(=O)N[C@@H]([C@@H](C)CC)C(=O)N2CCC[C@H]2C(=O)N(C)[C@H]2C/C=C\CCN(C2=O)[C@@H](Cc2ccc(C(F)F)cc2)C(=O)N(C)CC(=O)N[C@@H](CCc2ccc(Cl)c(Cl)c2)C(=O)N2C[C@H](OCC)C[C@H]2C(=O)NC2(CC(C)(C)C2)C(=O)N(C)[C@@H](C(CC)CC)C(=O)N(C)[C@H](C(=O)N(C)C)CC(=O)N1C [PP2637] | AA (a compound having 20 or more is denoted as AA) | A (a compound having 10 or more and less than 20 is denoted as A) | 61.4 | 1
9 | CCC[C@H]1C(=O)N[C@@H]([C@@H](C)CC)C(=O)N2CCC[C@H]2C(=O)N(C)[C@H]2C/C=C\CCN(C2=O)[C@@H](Cc2ccc(C)cc2)C(=O)N(C)CC(=O)N[C@@H](CCc2ccc(Cl)c(Cl)c2)C(=O)N2C[C@H](OCC)C[C@H]2C(=O)NC2(CC(C)(C)C2)C(=O)N(C)[C@@H](C(CC)CC)C(=O)N(C)[C@H](C(=O)N(C)C)CC(=O)N1C [PP2638] | AA (a compound having 20 or more is denoted as AA) | A (a compound having 10 or more and less than 20 is denoted as A) | 97 | 2.5
10 | CCC(CC)[C@H]1C(=O)N(C)[C@H](C(=O)N(C)C)CC(=O)N(C)[C@@H](COC)C(=O)N[C@@H]([C@@H](C)CC)C(=O)N2CCC[C@H]2C(=O)N(C)[C@H]2C/C=C\CCN(C2=O)[C@@H](Cc2ccc(C(F)(F)F)cc2)C(=O)N(C)CC(=O)N[C@@H](CCc2ccc(Cl)c(Cl)c2)C(=O)N2C[C@H](OC(C)C)C[C@H]2C(=O)NC2(CC(C)(C)C2)C(=O)N1C [PP2639] | AA (a compound having 20 or more is denoted as AA) | A (a compound having 10 or more and less than 20 is denoted as A) | 81.6 | 1.1
11 | CCC[C@H]1C(=O)N[C@@H]([C@@H](C)CC)C(=O)N2CCC[C@H]2C(=O)N(C)[C@H]2C/C=C\CCN(C2=O)[C@@H](Cc2ccc(C(F)F)cc2)C(=O)N(C)CC(=O)N[C@@H](CCc2ccc(Cl)c(Cl)c2)C(=O)N2C[C@H](OC(C)C)C[C@H]2C(=O)NC2(CC(C)(C)C2)C(=O)N(C)[C@@H](C(CC)CC)C(=O)N(C)[C@H](C(=O)N(C)C)CC(=O)N1C [PP2640] | AA (a compound having 20 or more is denoted as AA) | A (a compound having 10 or more and less than 20 is denoted as A) | 84.1 | 1.4
12 | CCC[C@H]1C(=O)N[C@@H]([C@@H](C)CC)C(=O)N2CCC[C@H]2C(=O)N(C)[C@H]2C/C=C\CCN(C2=O)[C@@H](Cc2ccc(C)cc2)C(=O)N(C)CC(=O)N[C@@H](CCc2ccc(Cl)c(Cl)c2)C(=O)N2C[C@H](OC(C)C)C[C@H]2C(=O)NC2(CC(C)(C)C2)C(=O)N(C)[C@@H](C(CC)CC)C(=O)N(C)[C@H](C(=O)N(C)C)CC(=O)N1C [PP2641] | AA (a compound having 20 or more is denoted as AA) | A (a compound having 10 or more and less than 20 is denoted as A) | 98.6 | 2
13 | CCC(CC)[C@H]1C(=O)N(C)[C@H](C(=O)N(C)C)CC(=O)N(C)[C@@H](COC)C(=O)N[C@@H]([C@@H](C)CC)C(=O)N(C)CC(=O)N(C)[C@H]2C/C=C\CCN(C2=O)[C@@H](Cc2ccc(C(F)(F)F)cc2)C(=O)N(C)CC(=O)N[C@@H](CCc2ccc(Cl)c(Cl)c2)C(=O)N2C[C@H](OC3CCC3)C[C@H]2C(=O)NC2(CC(C)(C)C2)C(=O)N1C [PP2642] | AA (a compound having 20 or more is denoted as AA) | A (a compound having 10 or more and less than 20 is denoted as A) | 36.6 | 0.44
14 | CCC[C@H]1C(=O)N[C@@H]([C@@H](C)CC)C(=O)N(C)CC(=O)N(C)[C@H]2C/C=C\CCN(C2=O)[C@@H](Cc2ccc(C(F)F)cc2)C(=O)N(C)CC(=O)N[C@@H](CCc2ccc(Cl)c(Cl)c2)C(=O)N2C[C@H](OC3CCC3)C[C@H]2C(=O)NC2(CC(C)(C)C2)C(=O)N(C)[C@@H](C(CC)CC)C(=O)N(C)[C@H](C(=O)N(C)C)CC(=O)N1C [PP2643] | AA (a compound having 20 or more is denoted as AA) | A (a compound having 10 or more and less than 20 is denoted as A) | 32.7 | 0.49
